Results from ChEMBL document CHEMBL1641507, “The effect of structural differences in the reducing terminus of sugars on the binding affinity of carbohydrates and proteins analyzed using photoaffinity labeling” (Bioorg Med Chem, 2011).
The source made the active and inactive calls. The calls are words filed in the database; no cut-off is given here.

Columns and labels:
Lectin (Glycine max) [1] = target: Lectin (Glycine max) (UniProt P05046); assay: Binding affinity to soybean lectin assessed as compound-protein complex formation incubated for 30 mins followed by UV irradiation by SDS-PAGE based photoaffinity labeling
Chain of Lectin (Glycine max) (P05046 whole entry): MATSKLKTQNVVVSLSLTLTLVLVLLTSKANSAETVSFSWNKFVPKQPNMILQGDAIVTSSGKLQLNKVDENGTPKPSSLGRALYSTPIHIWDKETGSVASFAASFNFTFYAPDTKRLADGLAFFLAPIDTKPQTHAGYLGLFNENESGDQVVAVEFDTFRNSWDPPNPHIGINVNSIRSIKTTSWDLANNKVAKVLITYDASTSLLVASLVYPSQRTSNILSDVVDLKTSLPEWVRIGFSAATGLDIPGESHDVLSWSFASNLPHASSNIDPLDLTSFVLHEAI

[2] = target: T1, Lectin (Erythrina crista-galli) (UniProt P83410); assay: Binding affinity to Erythrina cristagalli lectin assessed as compound-protein complex formation incubated for 30 mins followed by UV irradiation by SDS-PAGE based photoaffinity labeling
T1 sequence (whole entry): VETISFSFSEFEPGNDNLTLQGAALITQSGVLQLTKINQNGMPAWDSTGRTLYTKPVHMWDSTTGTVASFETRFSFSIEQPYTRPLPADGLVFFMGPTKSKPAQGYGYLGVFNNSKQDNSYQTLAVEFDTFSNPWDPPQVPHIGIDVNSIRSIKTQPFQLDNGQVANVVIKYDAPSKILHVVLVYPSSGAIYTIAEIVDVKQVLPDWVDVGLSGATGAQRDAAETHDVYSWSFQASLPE

Lectin (Glycine max) [3] = target: Lectin (Glycine max) (UniProt P05046); assay: Binding affinity to soybean lectin assessed as compound-protein complex formation incubated for 30 mins followed by UV irradiation by SDS-PAGE based photoaffinity labeling in presence of lactose
[4] = target: T1, Lectin (Erythrina crista-galli); assay: Binding affinity to Erythrina cristagalli lectin assessed as compound-protein complex formation incubated for 30 mins followed by UV irradiation by SDS-PAGE based photoaffinity labeling in presence of lactose

Activity (Lectin (Glycine max) [1]): Active
Activity [2]: Active
Activity (Lectin (Glycine max) [3]): Active
Activity [4]: Active
SMILES: O=C(CCCC[C@@H]1SC[C@H]2NC(=O)N[C@@H]12)NCCOCCOCCOc1cc(C2(C(F)(F)F)N=N2)ccc1CO/N=C/[C@@H](O)[C@@H](O)[C@H](O[C@@H]1O[C@H](CO)[C@H](O)[C@H](O)[C@H]1O)[C@H](O)CO
